# Assay results as given in ChEMBL document CHEMBL1132649, “Molecular modeling and synthesis of inhibitors of herpes simplex virus type 1 uracil-DNA glycosylase” (J Med Chem, 1999).
# System: Uracil-DNA glycosylase (Herpes simplex virus type 1)
# Assay: Inhibitory potency against HSV-1 UDG( Herpes Simplex virus type-I Uracil DNA glycosylase); 10-15% inhibition was observed at a concentration of 40 uM
# Conditions: Human alphaherpesvirus 1
row,inhibition,Compound
1,15%,CCCCCCc1ccc(Nc2cc(=O)[nH]c(=O)n2C)cc1
2,15%,CCCCCCc1ccc(Nc2cc(=O)[nH]c(=O)n2CC)cc1
3,15%,CCCCCCc1ccc(Nc2cc(=O)[nH]c(=O)n2CCC)cc1
